Ends that are not written are not given here.
Experiments:
[1] = test system: cultured neuron/glia cells
[2] = test system: cultured neurons (neuron/glia cultures)
[3] = Proteolytic stability in blood serum, Western blot; settings: peptide stock 1 μg/μL added 1:5, 37°C, 3 independent experiments and one technical replicate (Figures 3A-C)
Protocol: For testing the resistance of the peptides to proteolytic degradation blood serum was prepared from blood collected from naïve mice decapitated under deep isoflurane anesthesia. The blood samples were allowed to clot at RT for 10–15 min, followed by centrifugation at 2000 g for 10 min and 4°C to separate the serum. The serum was stored at −80°C until used.
For testing, a peptide stock solution of 1 μg/μL was added directly to the serum in a ratio of 1:5 and incubated at 37°C for different times. After incubation, the mixture was diluted 1:4 with PBS and the samples were incubated with 2x Laemmli sample buffer (Bio-Rad) for 1 h at 37°C. The samples were subjected to tricine-sodium dodecyl sulfate-polyacrylamide gel electrophoresis (SDS-PAGE) using 1 mm thick 16% gels modified for the detection of small peptides as described by ([Too et al., 1994]).
Proteins were transferred onto 0.1 μm nitrocellulose membranes, previously coated with a solution of 0.5% gelatine ([Too et al., 1994]), in a semi-dry transfer cell (Trans-Blot SD; Bio-Rad) for 70 min at 10 V. After transfer, the blots were immediately incubated in 4% PFA for 5 min, thoroughly washed and blocked for 1 h in PBS containing 5% non-fat dry milk at room temperature. Thereafter, the blots were incubated with Alexa Fluor 750-streptavidin overnight at 4°C in PBS containing 5% non-fat dry milk. The blots were washed three times for 10 min with TBST and immunoreactivity was detected by the ODYSSEY CLx scanner (LI-COR Biosciences). For quantification of signal intensity, the images were analyzed with the Image Studio software (LI-COR Biosciences).

[4] = test system: cultured neurons (neuron/glia cultures); assay: Peptide uptake into individual cultured neurons, colocalization immunocytochemistry; settings: 1 h

Row | Sequence | uptake of truncated RVG peptides (attached to 9R) into cultured neurons, screening [1] | colocalization with GABAB receptors and neuronal marker NeuN [2] | degradation after incubation for up to 72 h in mouse serum [3] | other results
1 | FTNSRGKRRRRRRRRRR [Figure 2A peptide 5] | retained neuron-specific uptake | selectively taken up by neurons | – | –
2 | GTPCDIFTRRRRRRRRRSETQDTMKTGSSTNNNEEEKSR [CaMKII-Pep] | – | – | did not result in an appreciable degradation | –
3 | GTPCDIFTRRRRRRRRRFQFTQNQKKEDSKTSTSV [PP2A-Pep] | – | – | did not result in an appreciable degradation | –
4 | YTIWMPENPRPGTPCDIFTNSRGKRASNGGGGRRRRRRRRR [Figure 1A peptide 12] | – | – | – | uptake into cultured neuron/glia cells (Figure 1A) [1]: did not affect its uptake into the cultured cells
5 | GTPCDIFTRRRRRRRRRLQDTPEKTTYIK [CHOP-Pep] | – | – | did not result in an appreciable degradation | –
6 | YTIWMPENRRRRRRRRR [Figure 2A peptide 2] | retained neuron-specific uptake | selectively taken up by neurons | – | –
7 | GTPCDIFTRRRRRRRRR [Figure 2A peptide 4] | retained neuron-specific uptake | selectively taken up by neurons | – | peptide uptake into individual neurons by immunocytochemistry ([4]; 10 μg/mL, normalized to peptide 4, 50 neurons per sequence, two independent experiments (Figure 2B)): considerably more efficiently taken up by neurons than the other peptides tested; cell-type selectivity of uptake (NeuN vs GFAP colocalization) ([4]; NeuN, GFAP, DAPI, 3 independent determinations in triplicates (Figure 2C)): lack of uptake by astrocytes

Source: publication PMC12066480, “Optimization of neuron-specific interfering peptides targeting GABAB receptor downregulation for proteolytic stability for conferring neuroprotection in a mouse model of cerebral ischemia” (Frontiers in Pharmacology, 2025)
